Results taken from ChEMBL document CHEMBL1155820, “Lipid-conjugated oligonucleotides via "click chemistry" efficiently inhibit hepatitis C virus translation” (J Med Chem, 2008).
Activity calls are given as the source filed them. The calls are words filed in the database; no cut-off is given here.

Key:
Hepatitis C virus [1] = assay: Inhibition of hepatitis C virus internal ribosome entry site-mediated translation in human Huh7 cells preincubated for 4 hrs in presence of fetal calf serum by bicistronic luciferase reporter gene assay; type: functional, organism-based; details: Hepacivirus hominis; Huh-7
[2] = Cytotoxicity against human Huh7 cells at 0.1 to 2 uM; type: cell-based; details: huh-7, 2 µM
Hepatitis C virus [3] = assay: Inhibition of hepatitis C virus internal ribosome entry site-mediated translation in human Huh7 cells at 2 uM preincubated for 4 hrs in presence of fetal calf serum by bicistronic luciferase reporter gene assay; type: functional, Hepacivirus hominis; details: Huh-7
Hepatitis C virus [4] = assay: Inhibition of hepatitis C virus internal ribosome entry site-mediated translation in human Huh7 cells at 1 uM preincubated for 4 hrs in presence of fetal calf serum by bicistronic luciferase reporter gene assay; type: functional, Hepacivirus hominis; details: Huh-7

| Structure (SMILES) | Activity (Hepatitis C virus [1]) | Activity [2] | inhibition at 2 µM (Hepatitis C virus [3]) [%] | inhibition at 1 µM (Hepatitis C virus [4]) [%] |
| --- | --- | --- | --- | --- |
| CCCCCCCCCCCCCCCCCCOCC1=CN(C[C@H]2O[C@@H](n3cc(C)c(=O)[nH]c3=O)C[C@@H]2OP(=O)(O)OC[C@H]2O[C@@H](n3cnc4c(N)ncnc43)[C@H](OC)[C@@H]2OP(=O)(O)OC[C@H]2O[C@@H](n3ccc(N)nc3=O)[C@H](OC)[C@@H]2OP(=O)(O)OC[C@H]2O[C@@H](n3ccc(N)nc3=O)[C@H](OC)[C@@H]2OP(=O)(O)OC[C@H]2O[C@@H](n3ccc(N)nc3=O)[C@H](OC)[C@@H]2OP(=O)(O)OC[C@H]2O[C@@H](n3cnc4c(N)ncnc43)[C@H](OC)[C@@H]2OP(=O)(O)OP(=O)(O)OC[C@H]2O[C@@H](n3cnc4c(N)ncnc43)[C@H](OC)[C@@H]2OP(=O)(O)OC[C@H]2O[C@@H](n3ccc(N)nc3=O)[C@H](OC)[C@@H]2OP(=O)(O)OC[C@H]2O[C@@H](n3cnc4c(N)ncnc43)[C@H](OC)[C@@H]2OP(=O)(O)OC[C@H]2O[C@@H](n3ccc(N)nc3=O)[C@H](OC)[C@@H]2OP(=O)(O)OC[C@H]2O[C@@H](n3ccc(=O)[nH]c3=O)[C@H](OC)[C@@H]2OP(=O)(O)OC[C@H]2O[C@@H](n3cnc4c(N)ncnc43)[C@H](OC)[C@@H]2OP(=O)(O)OC[C@H]2O[C@@H](n3ccc(N)nc3=O)[C@H](OC)[C@@H]2OP(=O)(O)OC[C@H]2O[C@@H](n3ccc(=O)[nH]c3=O)[C@H](OC)[C@@H]2OP(=O)(O)OC[C@H]2O[C@@H](n3ccc(N)nc3=O)[C@H](OC)[C@@H]2OP(=O)(O)OC[C@H]2O[C@@H](n3cnc4c(=O)[nH]c(N)nc43)[C@H](OC)[C@@H]2OP(=O)(O)OC[C@H]2O[C@@H](n3cnc4c(=O)[nH]c(N)nc43)[C@H](OC)[C@@H]2OP(=O)(O)OC[C@H]2O[C@@H](n3ccc(N)nc3=O)[C@H](OC)[C@@H]2OP(=O)(O)O)NN1 | Dose-dependent effect | Non-toxic | 50 |  |
| CO[C@@H]1[C@H](OP(=O)(O)O)[C@@H](COP(=O)(O)O[C@H]2[C@@H](OC)[C@H](n3cnc4c(=O)[nH]c(N)nc43)O[C@@H]2COP(=O)(O)O[C@H]2[C@@H](OC)[C@H](n3cnc4c(=O)[nH]c(N)nc43)O[C@@H]2COP(=O)(O)O[C@H]2[C@@H](OC)[C@H](n3ccc(N)nc3=O)O[C@@H]2COP(=O)(O)O[C@H]2[C@@H](OC)[C@H](n3ccc(=O)[nH]c3=O)O[C@@H]2COP(=O)(O)O[C@H]2[C@@H](OC)[C@H](n3ccc(N)nc3=O)O[C@@H]2COP(=O)(O)O[C@H]2[C@@H](OC)[C@H](n3cnc4c(N)ncnc43)O[C@@H]2COP(=O)(O)O[C@H]2[C@@H](OC)[C@H](n3ccc(=O)[nH]c3=O)O[C@@H]2COP(=O)(O)O[C@H]2[C@@H](OC)[C@H](n3ccc(N)nc3=O)O[C@@H]2COP(=O)(O)O[C@H]2[C@@H](OC)[C@H](n3cnc4c(N)ncnc43)O[C@@H]2COP(=O)(O)O[C@H]2[C@@H](OC)[C@H](n3ccc(N)nc3=O)O[C@@H]2COP(=O)(O)O[C@H]2[C@@H](OC)[C@H](n3cnc4c(N)ncnc43)O[C@@H]2COP(=O)(O)OP(=O)(O)O[C@H]2[C@@H](OC)[C@H](n3cnc4c(N)ncnc43)O[C@@H]2COP(=O)(O)O[C@H]2[C@@H](OC)[C@H](n3ccc(N)nc3=O)O[C@@H]2COP(=O)(O)O[C@H]2[C@@H](OC)[C@H](n3ccc(N)nc3=O)O[C@@H]2COP(=O)(O)O[C@H]2[C@@H](OC)[C@H](n3ccc(N)nc3=O)O[C@@H]2COP(=O)(O)O[C@H]2[C@@H](OC)[C@H](n3cnc4c(N)ncnc43)O[C@@H]2COP(=O)(O)O[C@H]2C[C@H](n3cc(C)c(=O)[nH]c3=O)O[C@@H]2CN2C=C(CO[C@H]3CC[C@@]4(C)C(=CC[C@H]5[C@@H]6CC[C@H]([C@H](C)CCCC(C)C)[C@@]6(C)CC[C@@H]54)C3)NN2)O[C@H]1n1ccc(N)nc1=O | Dose-dependent effect | Non-toxic |  | 50 |
| CO[C@@H]1[C@H](OP(=O)(O)O)[C@@H](COP(=O)(O)O[C@H]2[C@@H](OC)[C@H](n3cnc4c(=O)[nH]c(N)nc43)O[C@@H]2COP(=O)(O)O[C@H]2[C@@H](OC)[C@H](n3cnc4c(=O)[nH]c(N)nc43)O[C@@H]2COP(=O)(O)O[C@H]2[C@@H](OC)[C@H](n3ccc(N)nc3=O)O[C@@H]2COP(=O)(O)O[C@H]2[C@@H](OC)[C@H](n3ccc(=O)[nH]c3=O)O[C@@H]2COP(=O)(O)O[C@H]2[C@@H](OC)[C@H](n3ccc(N)nc3=O)O[C@@H]2COP(=O)(O)O[C@H]2[C@@H](OC)[C@H](n3cnc4c(N)ncnc43)O[C@@H]2COP(=O)(O)O[C@H]2[C@@H](OC)[C@H](n3ccc(=O)[nH]c3=O)O[C@@H]2COP(=O)(O)O[C@H]2[C@@H](OC)[C@H](n3ccc(N)nc3=O)O[C@@H]2COP(=O)(O)O[C@H]2[C@@H](OC)[C@H](n3cnc4c(N)ncnc43)O[C@@H]2COP(=O)(O)O[C@H]2[C@@H](OC)[C@H](n3ccc(N)nc3=O)O[C@@H]2COP(=O)(O)O[C@H]2[C@@H](OC)[C@H](n3cnc4c(N)ncnc43)O[C@@H]2COP(=O)(O)OP(=O)(O)O[C@H]2[C@@H](OC)[C@H](n3cnc4c(N)ncnc43)O[C@@H]2COP(=O)(O)O[C@H]2[C@@H](OC)[C@H](n3ccc(N)nc3=O)O[C@@H]2COP(=O)(O)O[C@H]2[C@@H](OC)[C@H](n3ccc(N)nc3=O)O[C@@H]2COP(=O)(O)O[C@H]2[C@@H](OC)[C@H](n3ccc(N)nc3=O)O[C@@H]2COP(=O)(O)O[C@H]2[C@@H](OC)[C@H](n3cnc4c(N)ncnc43)O[C@@H]2COP(=O)(O)O)O[C@H]1n1ccc(N)nc1=O | inactive |  |  |  |
